Broadly, the IC50 is the concentration at which inhibition is half-maximal.

This test deals with T1, human kinase Mps-1 (Homo sapiens, UniProt P33981).
T1 construct: N-terminally GST-tagged human full length recombinant Mps-1 kinase; purchased Invitrogen, Karslruhe, Germany PV4071
T1 sequence (P33981 1-857): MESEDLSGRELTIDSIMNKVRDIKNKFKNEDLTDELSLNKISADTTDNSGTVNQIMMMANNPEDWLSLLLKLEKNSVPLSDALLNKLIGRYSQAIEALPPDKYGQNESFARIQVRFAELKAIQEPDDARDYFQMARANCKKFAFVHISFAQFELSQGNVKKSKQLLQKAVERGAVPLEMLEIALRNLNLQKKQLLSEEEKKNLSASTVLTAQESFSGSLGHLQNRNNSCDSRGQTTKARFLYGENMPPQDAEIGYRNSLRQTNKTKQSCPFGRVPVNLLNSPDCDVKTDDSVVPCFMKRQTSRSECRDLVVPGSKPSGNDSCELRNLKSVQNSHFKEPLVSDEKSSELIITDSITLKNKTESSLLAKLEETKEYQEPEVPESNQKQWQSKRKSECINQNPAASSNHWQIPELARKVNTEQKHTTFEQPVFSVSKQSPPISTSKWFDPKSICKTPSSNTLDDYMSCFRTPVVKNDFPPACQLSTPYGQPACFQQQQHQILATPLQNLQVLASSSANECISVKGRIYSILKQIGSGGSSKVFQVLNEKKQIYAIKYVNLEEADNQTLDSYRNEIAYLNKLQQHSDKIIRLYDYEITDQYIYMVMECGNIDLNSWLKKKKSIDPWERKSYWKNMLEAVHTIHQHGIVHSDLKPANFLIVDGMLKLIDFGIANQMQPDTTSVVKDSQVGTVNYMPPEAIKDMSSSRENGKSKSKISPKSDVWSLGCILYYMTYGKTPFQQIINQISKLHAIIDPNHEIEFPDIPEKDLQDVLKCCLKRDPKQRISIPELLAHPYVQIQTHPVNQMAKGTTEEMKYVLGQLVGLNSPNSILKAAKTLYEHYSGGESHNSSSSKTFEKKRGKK
The experiment in a line: Mps-1 Kinase Assay (TR-FRET). The settings on record: N-terminally GST-tagged human full length recombinant Mps-1; 10 μM ATP; 1 μM biotinylated peptide substrate; 60 min at 22° C.; read-out: MPS1 Inhibition, IC50 in M. The class given is biochemical.
With `N#Cc1ccccc1Nc1nc2ccc(-c3cccc(C(=O)NCc4ccccc4)c3)cn2n1` [Example 9.4, N-benzyl-3-{2-[(2-cyanophenyl)amino][1,2,4]triazolo[1,5-a]pyridin-6-yl}benzamide], the IC50 stood at 21 nM.
For the molecule `COc1ccccc1Nc1nc2ccc(-c3cccc(C(=O)NCc4ccccc4)c3)cn2n1` [Example 10.2, N-benzyl-3-{2-[(2-methoxyphenyl)amino][1,2,4]triazolo[1,5-a]pyridin-6-yl}benzamide], the IC50 was found to be 45 nM.
Then `COc1ccccc1Nc1nc2ccc(-c3cccc(NC(=O)Nc4cccnc4)c3)cn2n1` [Example 8.12, 1-(3-{2-[(2-methoxyphenyl)amino][1,2,4]triazolo[1,5-a]pyridin-6-yl}phenyl)-3-pyridin-3-ylurea], with 270 nM; and `O=C(Cc1cccnc1)Nc1ccc(-c2ccc3nc(Nc4ccccc4C(F)(F)F)nn3c2)cc1` [Example 5.8, 2-(pyridin-3-yl)-N-[4-(2-{[2-(trifluoromethyl)phenyl]amino}[1,2,4]triazolo[1,5-a]pyridin-6-yl)phenyl]acetamide], with 99 nM; and `COc1ccccc1Nc1nc2ccc(-c3ccc(NC(=O)CC4CC4)cc3)cn2n1` [Example 4.2, 2-cyclopropyl-N-(4-{2-[(2-methoxyphenyl)amino][1,2,4]triazolo[1,5-a]pyridin-6-yl}phenyl)acetamide], with 27 nM.
In the case of `COC(C(=O)Nc1ccc(-c2ccc3nc(Nc4ccccc4C(F)(F)F)nn3c2)cc1)c1ccccc1` (racemic) [Example 5.9, Rac-2-methoxy-2-phenyl-N-[4-(2-{[2-(trifluoromethyl)phenyl]amino}[1,2,4]-triazolo[1,5-a]pyridin-6-yl)phenyl]acetamide], the IC50 is 110 nM.
`N#Cc1ccccc1Nc1nc2ccc(-c3cccc(C(=O)NC4CC4)c3)cn2n1` [Example 9.5, 3-{2-[(2-cyanophenyl)amino][1,2,4]triazolo[1,5-a]pyridin-6-yl}-N-cyclopropylbenzamide]: the IC50 is 4.4 nM.
For the molecule `CO[C@H](C(=O)Nc1ccc(-c2ccc3nc(Nc4ccccc4C#N)nn3c2)cc1)c1ccccc1` (stereo in doubt) [Example 3.2, N-(4-{2-[(2-cyanophenyl)amino][1,2,4]triazolo[1,5-a]pyridin-6-yl}phenyl)-2-methoxy-2-phenylacetamide], the IC50 is 3.4 nM.
Turning to `COc1ccccc1Nc1nc2ccc(-c3cccc(NC(=O)Nc4ccncc4)c3)cn2n1` [Example 8.14, 1-(3-{2-[(2-methoxyphenyl)amino][1,2,4]triazolo[1,5-a]pyridin-6-yl}phenyl)-3-pyridin-4-ylurea], the IC50 was determined as 660 nM.
With `N#Cc1ccccc1Nc1nc2ccc(-c3ccc(NC(=O)Cc4cccnc4)cc3)cn2n1` [Example 3.8, N-(4-{2-[(2-cyanophenyl)amino][1,2,4]triazolo[1,5-a]pyridin-6-yl}phenyl)-2-(pyridin-3-yl)acetamide] the figure was 3.5 nM; with `COc1ccccc1Nc1nc2ccc(-c3cccc(NC(=O)Cc4ccccc4)c3)cn2n1` [Example 8.1, N-(3-{2-[(2-methoxyphenyl)amino][1,2,4]triazolo[1,5-a]pyridin-6-yl}phenyl)-2-phenylacetamide], 290 nM.
Consider `COc1ccccc1Nc1nc2ccc(-c3cccc(NC(=O)N4CCN(C)CC4)c3)cn2n1` [Example 8.8, N-(3-{2-[(2-methoxyphenyl)amino][1,2,4]triazolo[1,5-a]pyridin-6-yl}phenyl)-4-methylpiperazine-1-carboxamide], for which the 50% inhibitory concentration (IC50) is 620 nM.
Then `NC(C(=O)Nc1ccc(-c2ccc3nc(Nc4ccccc4C(F)(F)F)nn3c2)cc1)c1ccccc1` (racemic) [Example 5.7, rac-2-amino-2-phenyl-N-[4-(2-{[2-(trifluoromethyl)phenyl]amino}[1,2,4]triazolo[1,5-a]pyridin-6-yl)phenyl]acetamide], with 14 nM.
As for `COc1ccccc1Nc1nc2ccc(-c3ccc(C(=O)NC4CC4)cc3)cn2n1` [Example 1.1, N-Cyclopropyl-4-[2-(2-methoxy-phenylamino)-[1,2,4]triazolo[1,5-a]pyridin-6-yl]-benzamide], the IC50 is 370 nM.
Take `COc1ccccc1Nc1nc2ccc(-c3cccc(NS(=O)(=O)C4CC4)c3)cn2n1` [Example 8.4, N-(3-{2-[(2-methoxyphenyl)amino][1,2,4]triazolo[1,5-a]pyridin-6-yl}phenyl)cyclopropanesulfonamide]: the IC50 is 290 nM.
Regarding `COc1ccccc1Nc1nc2ccc(-c3cccc(NC(=O)Nc4ccccc4)c3)cn2n1` [Example 8.5, 1-(3-{2-[(2-methoxyphenyl)amino][1,2,4]triazolo[1,5-a]pyridin-6-yl}phenyl)-3-phenylurea], the IC50 was determined as 440 nM.
Then `COc1ccccc1Nc1nc2ccc(-c3cccc(C(=O)NC4CC4)c3)cn2n1` [Example 10.1, N-cyclopropyl-3-{2-[(2-methoxyphenyl)amino][1,2,4]triazolo[1,5-a]pyridin-6-yl}benzamide], with 6.5 nM; and `COc1ccccc1Nc1nc2ccc(-c3cccc(NS(=O)(=O)CC4CC4)c3)cn2n1` [Example 8.3, 1-Cyclopropyl-N-(3-{2-[(2-methoxyphenyl)amino][1,2,4]triazolo[1,5-a]pyridin-6-yl}phenyl)methanesulfonamide], with 66 nM.
With `COc1ccccc1Nc1nc2ccc(-c3cccc(NC(=O)C4CC4)c3)cn2n1` [Example 8.2, N-(3-{2-[(2-methoxyphenyl)amino][1,2,4]triazolo[1,5-a]pyridin-6-yl}phenyl)cyclopropanecarboxamide] the figure was 59 nM; with `CN1CCC(NC(=O)c2cccc(-c3ccc4nc(Nc5ccccc5C#N)nn4c3)c2)CC1` [Example 9.3, 3-{2-[(2-cyanophenyl)amino][1,2,4]triazolo[1,5-a]pyridin-6-yl}-N-(1-methylpiperidin-4-yl)benzamide], 74 nM.
With `O=C(Cc1ccccc1)Nc1ccc(-c2ccc3nc(Nc4ccccc4C(F)(F)F)nn3c2)cc1` [Example 5.1, 2-phenyl-N-[4-(2-{[2-(trifluoromethyl)phenyl]amino}[1,2,4]triazolo[1,5-a]pyridin-6-yl)phenyl]acetamide] the figure was 7.1 nM; with `N#Cc1ccccc1Nc1nc2ccc(-c3ccc(NC(=O)Cc4cccc(F)c4)cc3)cn2n1` [Example 3.5, N-(4-{2-[(2-cyanophenyl)amino][1,2,4]triazolo[1,5-a]pyridin-6-yl}phenyl)-2-(3-fluorophenyl)acetamide], 1.1 nM.
For the molecule `COc1ccccc1Nc1nc2ccc(-c3cccc(NC(=O)NCCN4CCOCC4)c3)cn2n1` [Example 8.13, 1-(3-{2-[(2-methoxyphenyl)amino][1,2,4]triazolo[1,5-a]pyridin-6-yl}phenyl)-3-[2-(morpholin-4-yl)ethyl]urea], the IC50 is 470 nM.
Take `N#Cc1ccccc1Nc1nc2ccc(-c3cccc(C(=O)Nc4ccccc4)c3)cn2n1` [Example 2.1, 3-{2-[(2-cyanophenyl)amino][1,2,4]triazolo[1,5-a]pyridin-6-yl}-N-phenylbenzamide]: the IC50 is 65 nM.
Then `COc1ccccc1Nc1nc2ccc(-c3cccc(NC(=O)N4CCOCC4)c3)cn2n1` [Example 8.10, N-(3-{2-[(2-methoxyphenyl)amino][1,2,4]triazolo[1,5-a]pyridin-6-yl}phenyl)morpholine-4-carboxamide], with 100 nM.

The values are drawn from patent publication US9676766B2, “Triazolopyridines” (BAYER INTELLECTUAL PROPERTY GMBH, priority 2009, dated 2017).
